The values that follow are results of earlier work, collected in US9066953B2, “Methods for increasing endurance and fat metabolism in humans” (Quality IP Holdings, LLC, priority 2012, dated 2015).

One data set concerns hGH. The note with it: for effect on hGH: other amino acids, literature.
For the next data set, the system named is GH. The note with it: subcutaneous injection of 0.06 IU, GH deficient subjects.

On to `N=C(N)NCCC[C@H](N)C(=O)O` [arginine], for which the “elevation of serum hGH levels” value in the data set with hGH (30 g intravenous, in males) is given as 8.6 fold. Further, in the data set with hGH (intravenous infusion of 183 mg/kg body weight in females), the “increase of hGH levels” value is reported as over 20 fold.
On to `N[C@@H](Cc1ccccc1)C(=O)O` [phenylalanine], for which the “effect on hGH” value in the data set with hGH is recorded as “marked increases in hGH”.
For the compound `N[C@@H](Cc1c[nH]cn1)C(=O)O` [histidine], the “effect on hGH” value in the data set with hGH is “marked increases in hGH”.
Regarding “HGH: injected human growth hormone used in the treatment of GH deficient subjects”, the “mean levels of GH reached” value in the data set with GH was 0.4 ng/mL.
As for `NCCCC[C@H](N)C(=O)O` [lysine], in the data set on hGH, the “effect on hGH” value is reported as “marked increases in hGH”.
As for `NCCC[C@H](N)C(=O)O` [ornithine], the “effect on hGH” value with hGH is “marked increases in hGH”.
Regarding `CSCC[C@H](N)C(=O)O` [methionine], in the data set on hGH, the “effect on hGH” value is recorded as “marked increases in hGH”.
